Data: the NIST ThermoML archive (doi:10.1016/j.jct.2014.11.007)

Columns and labels:
[1] = mn = molality of the nth substance listed, in mol/kg; conditions: 100 kPa, Liquid; for speed of sound: Frequency=3 MHz, Sing-around technique in a fixed-path interferometer; for mass density: Vibrating tube method
[2] = 100 kPa, Liquid, Vibrating tube method

NCC(=O)O [2-aminoacetic acid] + O
[1]
Conditions | mass density, 293.15 K [kg/m3] | mass density, 298.15 K [kg/m3] | mass density, 303.15 K [kg/m3] | mass density, 308.15 K [kg/m3] | mass density, 313.15 K [kg/m3] | speed of sound, 293.15 K [m/s] | speed of sound, 298.15 K [m/s] | speed of sound, 303.15 K [m/s] | speed of sound, 308.15 K [m/s] | speed of sound, 313.15 K [m/s]
m1 = 0.01 | – | 997.478 | – | – | – | 1483.7 | 1497.8 | 1510.2 | 1520.8 | 1529.8
m1 = 0.03 | 999.313 | 998.145 | 996.744 | 995.118 | 993.306 | 1484.5 | 1498.5 | 1510.9 | 1521.5 | 1530.5
m1 = 0.05 | 999.93 | 998.761 | 997.353 | – | 993.898 | 1485.7 | 1499.6 | 1511.9 | 1522.5 | 1531.5

O=C(O)[C@@H]1CCCN1 [L-proline] + O
[1]
Conditions | mass density, 293.15 K [kg/m3] | mass density, 298.15 K [kg/m3] | mass density, 303.15 K [kg/m3] | mass density, 308.15 K [kg/m3] | mass density, 313.15 K [kg/m3] | speed of sound, 293.15 K [m/s] | speed of sound, 298.15 K [m/s] | speed of sound, 303.15 K [m/s] | speed of sound, 308.15 K [m/s] | speed of sound, 313.15 K [m/s]
m1 = 0.01 | 998.631 | 997.474 | 996.082 | 994.462 | 992.639 | 1483.8 | 1497.8 | 1510.1 | 1520.7 | 1529.8
m1 = 0.03 | 999.275 | 998.109 | 996.709 | 995.083 | 993.259 | 1485.8 | 1499.8 | 1511.8 | 1522.4 | 1531.4
m1 = 0.05 | 999.919 | 998.747 | 997.338 | 995.708 | 993.88 | 1487.4 | 1501 | 1512.9 | 1523.5 | 1532.3

O [water]
[2]
Conditions | mass density [kg/m3]
293.15 K | 998.272
308.15 K | 994.108
313.15 K | 992.29
